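Growth conditions: 96-well plates. Treatment: test compound, 48 hours, 5 concentrations. Analysis: linear interpolation between bracketing concentrations; unreached endpoints set to highest concentration. The concentration for 50% growth inhibition is given as GI50.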 The source made the active and inactive calls. Rule as the data show it: active = GI50 up to about 1.1 µM and inactive = higher.
What was measured:
Assay in all cases: DTP human tumour cell line panel, 48 h
[1] = test system: MDA-N
[2] = test system: NCI-H226
[3] = test system: SW-620
[4] = test system: HL-60
[5] = test system: RXF 393
[6] = test system: 786-0
[7] = test system: SF-539
[8] = test system: OVCAR-8
[9] = test system: TK-10
[10] = test system: ACHN
[11] = test system: BT-549
[12] = test system: SK-MEL-28
[13] = test system: SK-MEL-5
[14] = test system: SK-OV-3
[15] = test system: COLO 205
[16] = test system: SK-MEL-2
[17] = test system: UACC-257
[18] = test system: OVCAR-5
[19] = test system: PC-3
[20] = test system: SNB-75

Measured: GI50

Nc1nc(-c2ccc3ccccc3c2)cc(-c2cc(-c3ccc4ccccc4c3)nc(N)n2)n1
inactive: [1] > 100 µM | [2] > 100 µM | [3] > 100 µM | [4] > 100 µM | [5] > 100 µM | [6] > 100 µM | [7] > 100 µM | [8] > 100 µM | [9] > 100 µM | [10] > 100 µM | [11] > 100 µM | [12] > 100 µM | [13] > 100 µM | [14] > 100 µM | [15] > 100 µM | [16] > 100 µM | [17] > 100 µM | [18] > 100 µM | [19] > 100 µM

OCCNCCN1CCN(CCCN2c3ccccc3Sc3ccc(C(F)(F)F)cc32)CC1
inactive: [1] 19 µM | [2] 26.5 µM | [3] 19.2 µM | [4] > 100 µM | [5] 26.3 µM | [6] 17.3 µM | [7] 20.2 µM | [8] 18 µM | [9] 22.1 µM | [10] 24.9 µM | [11] 85.9 µM | [12] 23.6 µM | [13] > 100 µM | [14] 33.6 µM | [15] 18.2 µM | [16] 21.5 µM | [17] 20.3 µM | [18] 25.5 µM | [19] 32 µM

Cc1cc2nnn(C3CCCO3)c2cc1C (stereo not given)
inactive: [1] > 100 µM | [2] > 100 µM | [4] > 100 µM | [5] > 100 µM | [6] > 100 µM | [7] > 100 µM | [8] > 100 µM | [9] > 100 µM | [11] > 100 µM | [13] > 100 µM | [14] > 100 µM | [20] 31.8 µM | [15] > 100 µM | [16] > 100 µM | [17] > 100 µM | [18] > 100 µM | [19] > 100 µM

COc1cc2c(cc1OC)C(=O)N(NC1=NCCN1)C2=O
inactive: [1] > 100 µM | [2] > 100 µM | [3] > 100 µM | [4] > 100 µM | [5] > 100 µM | [6] > 100 µM | [7] > 100 µM | [8] > 100 µM | [9] > 100 µM | [10] > 100 µM | [11] > 100 µM | [12] > 100 µM | [13] > 100 µM | [14] > 100 µM | [15] > 100 µM | [16] > 100 µM | [17] > 100 µM | [18] > 100 µM | [19] > 100 µM

COc1ccc(/C=C2\NC(=S)N(/C=C3\C(=O)Oc4ccccc4C3=O)C2=O)cc1OC
inactive: [1] > 100 µM | [2] > 100 µM | [3] > 100 µM | [4] 22.4 µM | [5] 77.6 µM | [6] > 100 µM | [7] > 100 µM | [8] > 100 µM | [9] > 100 µM | [10] 91 µM | [11] > 100 µM | [13] > 100 µM | [14] > 100 µM | [20] 32.4 µM | [15] > 100 µM | [16] > 100 µM | [17] > 100 µM | [18] > 100 µM | [19] > 100 µM

CCc1nc2c(n1CC)C(=O)c1ccccc1C2=O
inactive: [1] > 10 µM | [2] 28.6 µM | [3] 26.7 µM | [4] 32.7 µM | [5] 19.8 µM | [6] > 100 µM | [7] 44.4 µM | [8] 32.8 µM | [9] 22.1 µM | [10] 39 µM | [11] 17.2 µM | [12] 56.1 µM | [13] > 10 µM | [20] 20.7 µM | [15] 16.8 µM | [17] 25.4 µM | [18] 47.2 µM | [19] 18.8 µM

CC1CC2(OC2C)C(=O)OC2CCN(C)C/C=C(/COC(=O)C1(C)O)C2=O (stereo not given)
inactive: [1] > 100 µM | [3] > 100 µM | [4] > 100 µM | [5] > 100 µM | [6] > 100 µM | [7] > 100 µM | [8] > 100 µM | [9] > 100 µM | [10] > 100 µM | [11] > 100 µM | [12] > 100 µM | [13] > 100 µM | [14] > 100 µM | [20] > 100 µM | [15] > 100 µM | [16] > 100 µM | [17] > 100 µM | [18] > 100 µM | [19] > 100 µM

CCOC(=O)c1cn2c(n1)sc1cc(Cl)cc(Cl)c12
inactive: [1] > 100 µM | [2] > 100 µM | [3] > 100 µM | [5] > 100 µM | [6] > 100 µM | [7] > 100 µM | [8] > 100 µM | [9] > 100 µM | [10] > 100 µM | [11] > 100 µM | [12] > 100 µM | [13] > 100 µM | [14] > 100 µM | [20] > 100 µM | [15] > 100 µM | [16] > 100 µM | [17] > 100 µM | [18] > 100 µM | [19] > 100 µM

O=C1O[C@H]2C3C4CCC(C4[C@@H]2I)[C@H]13 (stereo not given in full)
inactive: [1] > 100 µM | [2] > 100 µM | [3] > 100 µM | [4] > 100 µM | [5] > 100 µM | [6] > 100 µM | [7] > 100 µM | [8] > 100 µM | [9] > 100 µM | [10] > 100 µM | [11] > 100 µM | [12] > 100 µM | [13] > 100 µM | [20] 60.3 µM | [15] > 100 µM | [16] > 100 µM | [17] > 100 µM | [18] > 100 µM | [19] > 100 µM

COc1ccc(C2CC(c3c(O)ccc4ccccc34)=NN2c2ccc([N+](=O)[O-])cc2[N+](=O)[O-])cc1OC (stereo not given)
inactive: [1] 28.9 µM | [2] 13.9 µM | [3] 39.9 µM | [5] 24.4 µM | [6] 29 µM | [7] 26.1 µM | [8] 5.32 µM | [9] 24.3 µM | [10] 18.5 µM | [11] 30 µM | [12] 34.2 µM | [13] 10.1 µM | [14] 26.4 µM | [20] 20.7 µM | [15] 22.3 µM | [16] 19.4 µM | [17] 22.4 µM | [18] 24.3 µM | [19] 11.5 µM

CCOc1cc(C2SCC(=O)N2c2ccc3c(c2)Oc2c(Cl)c4c(c(Cl)c2=N3)Oc2cc(N3C(=O)CSC3c3ccc(O)c(OCC)c3)ccc2N=4)ccc1O (stereo not given)
inactive: [1] 34.8 µM | [2] 25.9 µM | [3] 54.7 µM | [4] 1.68 µM | [5] 21.3 µM | [6] 30.1 µM | [7] 14.9 µM | [8] 32.7 µM | [9] 41.7 µM | [10] 26.6 µM | [11] 21.7 µM | [12] 37.8 µM | [13] 45.8 µM | [20] 21.4 µM | [16] 27.5 µM | [17] 80.9 µM | [18] > 100 µM | [19] 48.6 µM

O=C1CC(=O)NC(NN2C(=O)CSC2c2ccccc2)=N1 (stereo not given)
inactive: [1] > 100 µM | [2] > 100 µM | [3] > 100 µM | [5] > 100 µM | [6] > 100 µM | [7] > 100 µM | [8] > 100 µM | [9] > 100 µM | [10] > 100 µM | [11] > 100 µM | [12] > 100 µM | [13] > 100 µM | [14] > 100 µM | [20] 30.9 µM | [15] > 100 µM | [16] > 100 µM | [17] > 100 µM | [18] > 100 µM | [19] > 100 µM

NS(=O)(=O)c1cc2c(cc1Cl)N=C(CCC(=O)O)NS2(=O)=O
inactive: [1] > 100 µM | [2] > 100 µM | [3] > 100 µM | [5] > 100 µM | [6] > 100 µM | [7] > 100 µM | [8] > 100 µM | [9] > 100 µM | [10] > 100 µM | [11] > 100 µM | [12] > 100 µM | [13] > 100 µM | [14] > 100 µM | [20] > 100 µM | [15] > 100 µM | [16] > 100 µM | [17] > 100 µM | [18] > 100 µM | [19] > 100 µM

COC(=O)/C=C\COCC1C2CCC(=O)C21 (stereo not given)
inactive: [1] > 25 µM | [2] 18.5 µM | [3] 7.93 µM | [5] 9.62 µM | [6] 11.5 µM | [7] 7.16 µM | [8] > 25 µM | [9] 13 µM | [10] 11.6 µM | [11] 11 µM | [12] > 25 µM | [13] 22.9 µM | [14] > 25 µM | [20] > 25 µM | [15] 14 µM | [16] > 25 µM | [17] 10.4 µM | [18] > 25 µM | [19] > 25 µM

O=c1cc(O)c2ccccc2o1 [4-HYDROXYCOUMARINS]
inactive: [1] > 100 µM | [2] > 100 µM | [3] > 100 µM | [4] > 100 µM | [5] > 100 µM | [6] > 100 µM | [7] > 100 µM | [8] > 100 µM | [9] > 100 µM | [10] > 100 µM | [11] > 100 µM | [12] > 100 µM | [13] > 100 µM | [20] > 100 µM | [15] > 100 µM | [17] > 100 µM | [18] > 100 µM | [19] > 100 µM

From ChEMBL document CHEMBL1201862, “PubChem BioAssay data set” (2004)
